System: primary mouse hepatocytes
Assay: Gene expression (Affymetrix Mouse Genome 430 2.0) in primary mouse hepatocytes, true vs false GTX, 24 h and 48 h
Conditions: log2, corrected for vehicle control

O=c1c(O)c(-c2ccc(O)c(O)c2)oc2cc(O)cc(O)c12 [Q, Quercetin]
Gene expression data AF000969 (Cadps2) (24 h average): −0.5753
Gene expression data AF022072 (Grb10) (24 h average): 0.3385
Gene expression data AF065917 (Lif) (24 h average): −0.1024
Gene expression data AF204959 (Cyp3a25 /// LOC622249) (24 h average): −1.232
Gene expression data AF297615 (Ggta1) (24 h average): 0.8047
Gene expression data AI594683 (Dmn) (24 h average): −0.2712
Gene expression data AI596632 (Ptprg /// LOC632664) (24 h average): −0.456
Gene expression data AI987929 (Ndrg1) (24 h average): 1.663
Gene expression data AK004419 (Fbxl17) (24 h average): −0.01537
Gene expression data AK005731 (1700007K13Rik) (24 h average): 0.6919
Gene expression data AK007766 (1810044A24Rik) (24 h average): −0.04463
Gene expression data AK007854 (1810053B23Rik) (24 h average): −0.9336
Gene expression data AK009736 (Gpr137b /// LOC664862 /// LOC673335) (24 h average): 1.171
Gene expression data AK010447 (Smyd3) (24 h average): 0.0701
Gene expression data AK014608 (4632434l11Rik) (24 h average): 0.03273
Gene expression data AK019979 (2610528E23Rik) (24 h average): 0.2502
Gene expression data AV095209 (Mthfd1l) (24 h average): 0.8331
Gene expression data AV141095 (1110033M05Rik) (24 h average): 0.2855
Gene expression data AV173571 (1700106N22Rik) (24 h average): −0.2484
Gene expression data AV219418 (Ldhb) (24 h average): −0.1808
Gene expression data AV223474 (Zdhhc14) (24 h average): −0.2496
Gene expression data AV298304 (Homez) (24 h average): 0.2496
Gene expression data AV327248 (Zfp365 /// LOC674611) (24 h average): 0.3116
Gene expression data AV377066 (9130221J18Rik) (24 h average): −0.4922
Gene expression data AW240761 (Tbc1d5) (24 h average): −0.157
Gene expression data AW543460 (Pard3) (24 h average): 0.2437
Gene expression data AW543723 (24 h average): 0.4193
Gene expression data AW986246 (Maoa) (24 h average): 1.388
Gene expression data BB027848 (4732466D17Rik) (24 h average): −1.304
Gene expression data BB043558 (9230114K14Rik) (24 h average): 0.3431
Gene expression data BB275142 (AW456874) (24 h average): −0.5004
Gene expression data BB308836 (Ppm1l) (24 h average): 0.1666
Gene expression data BB318221 (Zdhhc14) (24 h average): −0.1479
Gene expression data BB463610 (4632434l11Rik) (24 h average): −0.1026
Gene expression data BB526605 (Mipol1) (24 h average): 0.09617
Gene expression data BB770528 (Rai2) (24 h average): −0.3109
Gene expression data BB821363 (Scfd2) (24 h average): −0.2338
Gene expression data BC004827 (Psat1) (24 h average): 0.9258
Gene expression data BC008626 (Icam1) (24 h average): −0.3725
Gene expression data BC010462 (BC010462) (24 h average): −0.5852
Gene expression data BC012247 (Dcxr) (24 h average): −0.2845
Gene expression data BC012260 (Psmf1) (24 h average): −0.1689
Gene expression data BC015270 (Hist2h3c2) (24 h average): −0.3924
Gene expression data BC016073 (Cdkal1) (24 h average): 0.1993
Gene expression data BC016265 (Ube2e2) (24 h average): 0.1622
Gene expression data BC019882 (Acaa1b) (24 h average): 0.7124
Gene expression data BC025501 (Aaas) (24 h average): 0.4589
Gene expression data BC025837 (Sbk1) (24 h average): −0.3383
Gene expression data BC025915 (Cova1) (24 h average): 0.3176
Gene expression data BC026422 (Tgm1) (24 h average): 0.28
Gene expression data BF719766 (Thyn1) (24 h average): 0.1596
Gene expression data BG065754 (Ccng1) (24 h average): 0.4829
Gene expression data BG066903 (Kif16b) (24 h average): 0.2506
Gene expression data BG069873 (Gnb1l) (24 h average): 0.007867
Gene expression data BG070887 (Gtdc1) (24 h average): −0.2209
Gene expression data BG076151 (Ppm1d) (24 h average): −0.1367
Gene expression data BG261907 (Large) (24 h average): 0.3964
Gene expression data BI651416 (Cdc42bpg) (24 h average): 0.2653
Gene expression data BI660702 (Ell3) (24 h average): −0.05897
Gene expression data BM198879 (Ercc5) (24 h average): 0.1402
Gene expression data BM230508 (A030007D23Rik) (24 h average): 0.3449
Gene expression data NM_007987 (Fas) (24 h average): 0.1744
Gene expression data NM_008522 (Ltf) (24 h average): −0.09593
Gene expression data NM_008576 (Abcc1) (24 h average): 1.2925
Gene expression data NM_011176 (St14) (24 h average): 0.5914
Gene expression data NM_011316 (Saa4) (24 h average): −0.1314
Gene expression data NM_012006 (Acot1) (24 h average): 1.0762
Gene expression data NM_013866 (Zfp385) (24 h average): 0.06543
Gene expression data NM_018770 (Igsf4a) (24 h average): 0.4689
Gene expression data NM_021451 (Pmaip1) (24 h average): −0.611
Gene expression data NM_025770 (Atg10) (24 h average): 0.2663
Gene expression data NM_028803 (Gbe1) (24 h average): −0.2509
Gene expression data NM_030697 (Ankrd47) (24 h average): 1.3142
Gene expression data NM_053168 (Trim11) (24 h average): −0.02257
Gene expression data NM_134188 (Acot2) (24 h average): 0.1275
Gene expression data Y15910 (Diap2) (24 h average): −0.31
Gene expression AA561726 average (48 h): 0.3473
Gene expression AF000969 average (48 h): 0.6762
Gene expression AF022072 average (48 h): 0.7799
Gene expression AF033112 average (48 h): 0.02593
Gene expression AF055573 average (48 h): 0.0039
Gene expression AF069954 average (48 h): −0.168
Gene expression AF297615 average (48 h): −0.02943
Gene expression AF335325 average (48 h): −0.3547
Gene expression AI594683 average (48 h): −0.1952
Gene expression AI747296 average (48 h): −0.1572
Gene expression AK005731 average (48 h): −0.8953
Gene expression AK007854 average (48 h): 1.0645
Gene expression AK010447 average (48 h): −0.1277
Gene expression AK010738 average (48 h): 0.03457
Gene expression AK014608 average (48 h): −0.3181
Gene expression AK017734 average (48 h): −0.2231
Gene expression AK018383 average (48 h): −0.06343
Gene expression AK019979 average (48 h): −0.6456
Gene expression AV095209 average (48 h): 0.0573
Gene expression AV141095 average (48 h): −0.03573
Gene expression AV173869 average (48 h): −0.3593
Gene expression AV216768 average (48 h): 0.4269
Gene expression AV219418 average (48 h): 0.7223
Gene expression AV221299 average (48 h): 0.3941
Gene expression AV246296 average (48 h): −0.449
Gene expression AV251625 average (48 h): −0.2405
Gene expression AV254764 average (48 h): −0.09113
Gene expression AV327248 average (48 h): −0.1842
Gene expression BB009155 average (48 h): −0.6448
Gene expression BB027848 average (48 h): −0.5634
Gene expression BB043558 average (48 h): 0.03817
Gene expression BB046347 average (48 h): 0.3747
Gene expression BB140436 average (48 h): 0.455
Gene expression BB204486 average (48 h): 0.3211
Gene expression BB223872 average (48 h): −0.2409
Gene expression BB246912 average (48 h): 0.03943
Gene expression BB275142 average (48 h): −0.5307
Gene expression BB458460 average (48 h): −0.2505
Gene expression BB463610 average (48 h): −0.254
Gene expression BB730977 average (48 h): 0.127
Gene expression BB743970 average (48 h): −0.1543
Gene expression BB770528 average (48 h): −0.5238
Gene expression BB781615 average (48 h): −0.3025
Gene expression BC003284 average (48 h): −0.3991
Gene expression BC004827 average (48 h): 0.3832
Gene expression BC005552 average (48 h): 0.365
Gene expression BC006713 average (48 h): 0.1419
Gene expression BC010318 average (48 h): 0.2274
Gene expression BC012247 average (48 h): 0.1853
Gene expression BC012955 average (48 h): 0.25
Gene expression BC013893 average (48 h): −0.5246
Gene expression BC017615 average (48 h): −0.2786
Gene expression BC019379 average (48 h): −0.03313
Gene expression BC019882 average (48 h): −0.02177
Gene expression BC021352 average (48 h): −1.143
Gene expression BC022148 average (48 h): 0.2323
Gene expression BC025169 average (48 h): 0.176
Gene expression BC026131 average (48 h): 0.3886
Gene expression BC027026 average (48 h): 0.3636
Gene expression BC027121 average (48 h): 0.003767
Gene expression BC027185 average (48 h): −0.4317
Gene expression BE956581 average (48 h): 0.1063
Gene expression BF719766 average (48 h): 0.1683
Gene expression BG065754 average (48 h): −0.2692
Gene expression BG066491 average (48 h): −0.6278
Gene expression BG076151 average (48 h): −0.7006
Gene expression BG076333 average (48 h): 0.2569
Gene expression BG797099 average (48 h): −0.3185
Gene expression BG967046 average (48 h): −0.2263
Gene expression BI651416 average (48 h): −0.4982
Gene expression BI966443 average (48 h): 0.1621
Gene expression BM198879 average (48 h): −0.1382
Gene expression BM200015 average (48 h): −0.2469
Gene expression BM230508 average (48 h): −0.6707
Gene expression BM936480 average (48 h): 0.1682
Gene expression BQ174991 average (48 h): 0.5432
Gene expression L21027 average (48 h): 0.4391
Gene expression NM_007556 average (48 h): 0.4673
Gene expression NM_007980 average (48 h): 1.051
Gene expression NM_007987 average (48 h): −0.07343
Gene expression NM_008522 average (48 h): −0.03917
Gene expression NM_008935 average (48 h): 0.5881
Gene expression NM_009897 average (48 h): 0.2468
Gene expression NM_011075 average (48 h): −0.8714
Gene expression NM_011176 average (48 h): −0.3579
Gene expression NM_011316 average (48 h): −0.2485
Gene expression NM_012006 average (48 h): 0.7373
Gene expression NM_013642 average (48 h): 0.7153
Gene expression NM_013738 average (48 h): −0.4434
Gene expression NM_013929 average (48 h): 0.09257
Gene expression NM_018881 average (48 h): 0.2667
Gene expression NM_019738 average (48 h): −0.7691
Gene expression NM_030697 average (48 h): 0.08597
Gene expression NM_053122 average (48 h): −0.1158
Gene expression NM_134147 average (48 h): −0.2048
Gene expression NM_134188 average (48 h): 0.5773
Gene expression X62701 average (48 h): 0.8426
